Ends that are not written are not given here. coumarin = not defined here

This is an account of results in patent US7196163B2, “Assays using amyloid precursor proteins with modified β-secretase cleavage sites to monitor β-secretase activity” (Merk & Co., Inc., priority 2001, dated 2007).

For one test, the system named is 2081 antibody. Put plainly: Competition of peptides against biotinylated-SEVNF for binding of the 2081 antibody. Details: species or system rabbit. How it is done: To determine the specificity of the 2081 antibody, competition experiments against the biotinylated-SEVNF with the following peptides were performed: SEVNF, SEVN, SEVNFE, SEVNL, and SEVNLD. The experiment was performed similar to the experiment outlined in Example 2 to determine the specificity of antibody 2081.

Test [1] concerns immortalized β-secretase-/-mouse fibroblast cells. Put plainly: Aβ production after transfection into immortalized β-secretase-/- mouse fibroblast cells, with or without human β-secretase. The test is classed as cell-based. The following applies: no β-secretase co-transfected. From the text: Production of Aβ in β-secretase-/-cells could be rescued by co-transfection of the APP-derived polypeptides comprising modified β-secretase cleavage site sequences with human β-secretase.

The test system of the next test is HEK293T cells. In words: Aβ (IP/Western) and sAPP (Western) produced by APP β-site mutants transiently transfected into HEK293T cells. Format: cell-based. The note with it: for Aβ production compared with Swedish mutant and wild type APP695: HEK293T cells; for Aβ level / sAPP level: transfected into 293T cells; for sAPP level: Western blot with LN27. The text has this:
In order to assess the relative suitability of modified β-secretase substrates as substrates that are more reactive than the wild type KMDA cleavage site, plasmid DNA constructs were made expressing 21 different modified β-secretase cleavage site sequences. Table 1, below, summarizes data obtained from most of these modified β-secretase substrates in HEK293T cells. The HEK293T cells were transfected with plasmids containing the genetic sequences for the APP695 polypeptides that contain each of these beta-site substitutions. These plasmids were prepared using the method described above in Example 1. Transient transfection was performed using LipofectaminePlus reagent (Gibco/BRL, Rockville, Md.) according to the instructions of the manufacturer. Media was harvested 48 hrs post transfection. Then Western blot analysis was used to determine levels of sAPP and IP/Western to determine levels of Aβ. Several volumes of conditioned media, 20 μl, 10 μl, 5 μl, 2.5 μl, from the transiently transfected cells were run on 10% SDS-PAGE gels and transferred to PVDF for the measurement of sAPP. Each blot contained a titration of wild type APP transfected conditioned media to normalize for any experimental variations derived from transferring of the gels and western blot detection. The blots were then probed with the antibody LN27 (Zymed, Calif.) to detect the secreted APP, sAPP. Densitometry of each western blot determined the relative amount of total APP expressed in each transfection.
To determine the levels of Aβ, each of the conditioned media was immuno-precipitated and analyzed via the following method. 5 μg of monoclonal antibody G2-10 (a monoclonal antibody that immunologically binds to the carboxyl end of Aβ40, licensed from University of Heidelberg) was added to 1 ml of each conditioned media. The mixture was rotated overnight at 4° C. for 16 hours. 25 μl of a 50% slurry of Protein A sepharose Fast flow beads (Amersham, N.J.) was added and incubation continued, rotating, for 2 hours at 4° C. The beads were pelleted and the supernatant was removed. The beads were washed once with 1 ml PBS. This material was then run on SDS-Tricine gels for analysis. 20 μl of 2×tricine loading buffer was added to the pellet and the mixture was heated at 95° C. for 5 minutes. A pipette tip was used to mix and load the whole mixture (beads included) onto a Bio-Rad 10–20% Tricine gel. The gels were electrophoresed at 125 Volts for 2 hours and 15 minutes and then transferred onto 0.2 μm nitrocellulose backed by a 0.1 μm nitrocellulose membrane for 75 minutes at 100V constant. Blots were then washed in PBS and boiled in PBS for 5 minutes before blocking in PBS plus 0.05% Tween-20 (PBST) with 5% non-fat milk for 60 minutes at room temperature. The milk was washed off twice with PBST and the blots were incubated overnight at 4° C. with G2-10 in PBST (1:1000 dilution). Blots were washed five times for 5 minutes each with large volumes of PBST and the secondary antibody of Goat anti-mouse IgG2b-HRP (Southern Biotechnology Associates, Inc., Birmingham, Ala.) was added at 1:5000 in PBST-5% milk and incubated, rocking, for 1 hour at room temperature. The blots were again washed, five times for 10 minutes each in large volumes of PBST. The substrate Pico ECL (Pierce) was added for 5 minutes and the blots were exposed to Kodak BioMax film. After western analysis was complete, the bands were quantitated by densitometry. For both the sAPP and the Aβ, the GFP control plasmid transfection serves as the background reference level (1×).
In general terms: In western blotting, separated proteins are transferred to a membrane and probed.

The next test relates to anti-EVEFR antibodies. In words: ORIGEN non-sandwich competition of peptides with binding of ruthenylated anti-EVEFR antibodies to biotinylated EVEFR. The note with it: peptide added over a broad concentration range; FIGS. 3A, 3B. Details: species or system rabbit. How it is done:
Antibody specificity also was evaluated for both lots. An ORIGEN Analyzer (described below) was utilized in a non-sandwich assay to compare the ability of related polypeptides to compete with the binding of ruthenylated anti-EVEFR antibodies to biotinylated EVEFR (SEQ. ID. NO. 58). Certain peptides and conjugated peptides were added as treatments over a broad concentration range, and competitive titrations were made. […] The normal antigen is not acetylated.
Additionally, the specificity of the antibody raised against the EVEFR (SEQ.ID.NO.:58) sequence is tight enough that a conservative change in the epitope presented to the antibody, namely DVEFR(SEQ ID. NO. 60) where the NH-terminus E is conservatively changed to D, the antibody would only recognize the bona fide cleavage product. When measuring products in a cell-based environment, where thousands and perhaps millions of different proteins and epitopes are presented to the antibody, such specificity is required for the absolute measurement of the specific BACE cleavage product. Overall, the polyclonal rabbit antibodies raised against EVEFR (SEQ.ID.NO.:58) are shown to be sufficiently specific for use in detection analyses.
In certain embodiments the antibodies of the present invention are used in an electrochemiluminescence (ECL) detection method known in the art as “Origen” technology (Yang et al., 1994, Bio/Technology 12:193–194; Khorkova et al., 1998. Journal of Neuroscience Methods 82:159–166), and an Origen 1.5 Analyzer (Igen Inc., Gaithersburg, Md.). In embodiments using this ECL-based ORIGEN technology, each purified antibody lot is derivatized to a ruthenium tris-bipyridyl compound. The following provides one example of one of such embodiments.

A further test concerns the target BACE 1 (Homo sapiens, UniProt P56817). Put plainly: Homogeneous end point HPLC assay of BACE 1 cleavage of coumarin substrate. Format: biochemical. How it is done: A typical reaction contains 2 nM enzyme, 1.0 μM of the substrate, and buffer (50 mM NaOAc, pH 4.5, 0.1 mg/ml BSA, 0.2% CHAPS, 15 mM EDTA and 1 mM deferoxamine) in a total reaction volume of 100 μL. The reaction is proceeded for 30 min and the reaction is stopped by the addition of 25 μL of 1 M Tris-HCl, pH 8.0. The resulting reaction mixture was loaded on the HPLC and the product was separated from substrate with 5 min linear gradient. […] The enzyme used in these studies was soluble (transmembrane domain and cytoplasmic extension excluded) human protein produced in a baculovirus expression system. […] All experiments were conducted at room temperature using the standard reaction conditions described above. To determine the IC50 of the compound, four parameters equation is employed for curve fitting.

Sequence of BACE 1 (P56817 46-457 limits assumed): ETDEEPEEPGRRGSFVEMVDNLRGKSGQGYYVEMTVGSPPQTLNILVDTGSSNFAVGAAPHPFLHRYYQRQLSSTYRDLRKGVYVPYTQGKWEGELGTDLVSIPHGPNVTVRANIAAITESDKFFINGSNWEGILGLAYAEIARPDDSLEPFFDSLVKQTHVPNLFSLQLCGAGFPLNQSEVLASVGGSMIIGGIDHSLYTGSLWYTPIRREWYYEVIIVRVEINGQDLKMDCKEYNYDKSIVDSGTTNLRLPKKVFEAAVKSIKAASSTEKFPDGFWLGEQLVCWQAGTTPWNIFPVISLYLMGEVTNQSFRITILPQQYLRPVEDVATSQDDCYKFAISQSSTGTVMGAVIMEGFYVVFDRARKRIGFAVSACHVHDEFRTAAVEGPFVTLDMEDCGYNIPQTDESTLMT

SEVNLD: the “competition against biotinylated-SEVNF for binding of the 2081 antibody” value (“competition against biotinylated-SEVNF” for short) in the test on 2081 antibody was “could not compete”. Turning to “NFEV: APP695-derived polypeptide with NFEV at the P2-P1-P1′-P2′ β-secretase cleavage site”, the “production of Aβ” value in test [1] was “no production of Aβ was observed”. In the test on HEK293T cells, the “Aβ production compared with Swedish mutant and wild type APP695” value is reported as “high levels of Aβ, comparable to that generated by the APP Swedish mutant”. Moreover, the “rate of cleavage relative to similar substrate with wild-type KMDA sequence” value with HEK293T cells (in an APP backbone, expressed in tissue culture cells) is recorded as 15–20 times.

For “NYAA: APP695-derived polypeptide with NYAA at the β-secretase cleavage site”, in the test with HEK293T cells, the Aβ level entry was “below the limit of detection” and the sAPP level result is given as “below the limit of detection”. Take “DAEFR (peptide for use in antibody specificity evaluation)”: the “competition with biotinylated EVEFR for anti-EVEFR binding” value (“competition with biotinylated EVEFR” for short) in the test on anti-EVEFR antibodies was “unable to compete for binding”. For the substance “NYDV: APP695-derived polypeptide with NYDV at the β-secretase cleavage site”, in the test with HEK293T cells, the Aβ level result was “below the limit of detection” and the sAPP level entry was “below the limit of detection”. Regarding “VEFR (peptide simulating cleaved portion from carboxy side of novel sequence at known enzyme cleavage site, lacking end amino acid)”, the “competition with biotinylated EVEFR” value in the test on anti-EVEFR antibodies is recorded as “slight competitive interference”. For the substance acetylated-EVEFR (Ac-EVEFR), the “competition with biotinylated EVEFR” value with anti-EVEFR antibodies was “does not bind well to the antibody”.

As for “FFAV: APP695-derived polypeptide with FFAV at the β-secretase cleavage site”, in the test with HEK293T cells, the Aβ level result is on record as “below the limit of detection” and the sAPP level result is recorded as “below the limit of detection”. With “SEVNF (SEVNF-OH) [five C-terminal amino acids of the modified sAPPβ fragment]”, the “competition against biotinylated-SEVNF” value in the test with 2081 antibody is recorded as “could compete”. Consider “NFTV: APP695-derived polypeptide with NFTV at the β-secretase cleavage site”, for which, in the test with HEK293T cells, the Aβ level entry is “below the limit of detection” and the sAPP level entry is “below the limit of detection”.

Take “KYAA: APP695-derived polypeptide with KYAA at the β-secretase cleavage site”: in the test with HEK293T cells, the Aβ level entry is “below the limit of detection” and the sAPP level result was “below the limit of detection”. Turning to SEVNFE, in the test with 2081 antibody, the “competition against biotinylated-SEVNF” value is reported as “could not compete”. In the case of “NFDV: APP695-derived polypeptide with NFDV at the β-secretase cleavage site”, in the test with HEK293T cells, the Aβ level entry is recorded as “below the limit of detection” and the sAPP level result is reported as “below the limit of detection”. SEVNL: in the test with 2081 antibody, the “competition against biotinylated-SEVNF” value is on record as “limited amount of competition”. Besides, the “effectiveness of competition relative to SEVNF” value with 2081 antibody (less effective than SEVNF) amounted to 100 fold. Take “coumarin-bound deca-peptide: coumarin-bound deca-peptide including the EVEFR sequence; possibly coumarin-CO-REVNFEVEFR (coumarin-REVNFEVEFR; not fully specified; printed as coumarin-CO-REVNFEVEFR; reading uncertain)”: the “competition with biotinylated EVEFR” value in the test on anti-EVEFR antibodies is “did not compete well”. On the same count and under the same terms, the value for “EVEFR (peptide simulating cleaved portion from carboxy side of novel sequence at known enzyme cleavage site) [penta-peptide at the amino-terminal end of CTFβ from NFEV or FFEV substrates]” was “competed with biotinylated EVEFR”.

On to “KFAA: APP695-derived polypeptide with KFAA at the β-secretase cleavage site”, for which, in the test on HEK293T cells, the Aβ level result is listed as “below the limit of detection” and the sAPP level result is on record as “below the limit of detection”.

As to “NFEA: APP695-derived polypeptide with NFEA at the β-secretase cleavage site”, the “production of Aβ” value in test [1] is recorded as “no production of Aβ was observed”. Besides, in the test with HEK293T cells, the Aβ level entry was “below the limit of detection” and the sAPP level result is on record as “below the limit of detection”.

Take “DVEFR (peptide for use in antibody specificity evaluation)”: the “competition with biotinylated EVEFR” value in the test with anti-EVEFR antibodies is given as “somewhat higher level of interference”.

In the case of “NFAV: APP695-derived polypeptide with NFAV at the β-secretase cleavage site”, in the test on HEK293T cells, the Aβ level entry is “below the limit of detection” and the sAPP level result is reported as “below the limit of detection”. In the case of SEVN, the “competition against biotinylated-SEVNF” value in the test with 2081 antibody was “could not compete”. In general, Km refers to the concentration of substrate that gives half-maximal velocity. Regarding coumarin-CO-REVNFEVEFR, the “substrate processed by BACE 1” value on BACE 1 (2 nM enzyme, 1.0 μM substrate, 30 min, pH 4.5, room temperature) is given as “less than 10%”. The Km on BACE 1 (cannot be determined due to limit of solubility of the substrate) was over 100 µM. For the substance “NLDV: APP695-derived polypeptide with NLDV at the β-secretase cleavage site”, in test [1], the “production of Aβ” value is listed as “no production of Aβ was observed”. Further, the “Aβ production compared with Swedish mutant and wild type APP695” value in the test on HEK293T cells is given as “over three times the level of wild type APP695”. In addition, the “Aβ Level produced by APP β-site mutants in HEK293T cells” value in the test on HEK293T cells (media 48 hrs post transfection, IP/Western with G2-10, densitometry, GFP control = 1X) is 10–15X. For the substance “NYEA: APP695-derived polypeptide with NYEA at the β-secretase cleavage site”, in the test on HEK293T cells, the Aβ level entry was “below the limit of detection” and the sAPP level result is on record as “below the limit of detection”.
